# Laboratory results reported in patent US7326682B2 (priority 1998, dated 2008).
# Structures can show the parent of a compound that is named as a salt.
# System: rat prostatic vas deferens
structure (smiles),measurement,value
"COC(=O)[C@@H]1[C@H]2C[C@H]3c4[nH]c5ccccc5c4CCN3C[C@@H]2CC[C@@H]1O [yohimbine, yohimbine hydrochloride]",effect on the evoked responses,no effect
